Laboratory results: patent US4048320A, “Penicillins” (Beecham Group Limited, priority 1975, dated 1977)
Converted amounts (≈) assume the structure as drawn. Read-outs that look alike come from different tables or passages of the source.

Tests used:
Assay type in all cases: cell-based
Streptococcus faecalis = assay: MIC by serial dilution in nutrient agar
P. rettgeri = assay: MIC by serial dilution in nutrient agar; details: Providencia rettgeri
Citrobacter freundii = assay: MIC by serial dilution in nutrient agar
E. coli = assay: MIC by serial dilution in nutrient agar; details: Escherichia coli
Klebsiella aerogenes = assay: MIC by serial dilution in nutrient agar
P. morganii = assay: MIC by serial dilution in nutrient agar
Serratia marcescens = assay: MIC by serial dilution in nutrient agar
P. vulgaris = assay: MIC by serial dilution in nutrient agar; details: Proteus vulgaris
E. cloacae = assay: MIC by serial dilution in nutrient agar; details: Enterobacter cloacae
Proteus mirabilis = assay: MIC by serial dilution in nutrient agar
Enterobacter aerogenes = assay: MIC by serial dilution in nutrient agar; details: Klebsiella aerogenes
[1] = test system: a range of Gram-negative bacteria and Strep. Faecalis; assay: Microbiological evaluation, comparison of MIC values of the two compounds (Table I); details: from MIC values of Table I
[2] = Enterococcus faecalis, Streptococcus faecalis strain Weaver, read-out: MIC
[3] = Streptococcus faecalis strain A
[4] = Streptococcus faecalis strain Page
[5] = Citrobacter freundii strain T745
[6] = Citrobacter freundii strain W18
[7] = E. coli strain JT1, read-out: MIC
[8] = E. coli strain JT39R+, read-out: MIC
[9] = E. coli strain JT56R+, read-out: MIC
[10] = E. coli strain JT68R+, read-out: MIC
[11] = E. coli strain JT103, read-out: MIC
[12] = E. coli strain JT147, read-out: MIC
[13] = E. coli strain JT454C+, read-out: MIC
[14] = E. coli strain JT460C+, read-out: MIC
[15] = Klebsiella aerogenes strain B195R+
[16] = Klebsiella aerogenes strain E70
[17] = Klebsiella aerogenes strain I229
[18] = Klebsiella aerogenes strain I281
[19] = Klebsiella aerogenes strain T312
[20] = Morganella morganii, P. morganii strain DU10, read-out: MIC
[21] = Serratia marcescens strain US30
[22] = Serratia marcescens strain US39R+
[23] = Proteus mirabilis strain H-WF, read-out: MIC
[24] = Enterobacter aerogenes strain T730
[25] = Enterobacter aerogenes strain T755

SMILES | MIC (Streptococcus faecalis; [2]) [µg/mL] | MIC (Streptococcus faecalis; [3]) [µg/mL] | MIC (Streptococcus faecalis; [4]) [µg/mL] | MIC (P. rettgeri; P. rettgeri strain B) [µg/mL] | MIC (P. rettgeri; P. rettgeri strain I) [µg/mL] | MIC (P. rettgeri; P. rettgeri strain R110) [µg/mL] | MIC (Citrobacter freundii; [5]) [µg/mL] | MIC (Citrobacter freundii; [6]) [µg/mL] | MIC (E. coli; [7]) [µg/mL] | MIC (E. coli; E. coli strain JT2OR+) [µg/mL] | MIC (E. coli; [8]) [µg/mL] | MIC (E. coli; [9]) [µg/mL] | MIC (E. coli; [10]) [µg/mL] | MIC (E. coli; [11]) [µg/mL] | MIC (E. coli; [12]) [µg/mL] | MIC (E. coli; [13]) [µg/mL] | MIC (E. coli; [14]) [µg/mL] | MIC (Klebsiella aerogenes; [15]) [µg/mL] | MIC (Klebsiella aerogenes; [16]) [µg/mL] | MIC (Klebsiella aerogenes; [17]) [µg/mL] | further results
COC1(NC(=O)C(C(=O)O)c2ccccc2)C(=O)N2C(C(=O)O)C(C)(C)SC21 (stereo not drawn) [6-methoxy carbenicillin, 6α-methoxy-6β-(2-carboxyphenylacetamido)penicillanic acid, reference compound] | > 500 | > 500 | > 500 | 5 (≈ 12.2 µM) | 5 (≈ 12.2 µM) | 5 (≈ 12.2 µM) | 5 (≈ 12.2 µM) | 12.5 (≈ 30.6 µM) | 5 (≈ 12.2 µM) | 5 (≈ 12.2 µM) | 12.5 (≈ 30.6 µM) | 12.5 (≈ 30.6 µM) | 12.5 (≈ 30.6 µM) | 5 (≈ 12.2 µM) | 12.5 (≈ 30.6 µM) | 5 (≈ 12.2 µM) | 12.5 (≈ 30.6 µM) | 25 (≈ 61.2 µM) | 5 (≈ 12.2 µM) | 12.5 (≈ 30.6 µM) | MIC (Klebsiella aerogenes; [18]): 12.5 µg/mL (≈ 30.6 µM); MIC (Klebsiella aerogenes; [19]): 12.5 µg/mL (≈ 30.6 µM); MIC (P. morganii; [20]): 5 µg/mL (≈ 12.2 µM); MIC (P. morganii; P. morganii strain DU718): 5.0 µg/mL (≈ 12.2 µM); MIC (Serratia marcescens; Serratia marcescens strain US1): 5 µg/mL (≈ 12.2 µM); MIC (Serratia marcescens; [21]): 12.5 µg/mL (≈ 30.6 µM); MIC (Serratia marcescens; [22]): 5 µg/mL (≈ 12.2 µM); MIC (P. vulgaris; P. vulgaris strain C): < 0.5 µg/mL; MIC (P. vulgaris; P. vulgaris strain I): 5 µg/mL (≈ 12.2 µM); MIC (P. vulgaris; P. vulgaris strain K): 12.5 µg/mL (≈ 30.6 µM); MIC (E. cloacae; E. cloacae strain T629): 5 µg/mL (≈ 12.2 µM); MIC (E. cloacae; E. cloacae strain T763): 5 µg/mL (≈ 12.2 µM); MIC (Proteus mirabilis; Proteus mirabilis strain BS66): 5.0 µg/mL (≈ 12.2 µM); MIC (Proteus mirabilis; Proteus mirabilis strain CT13): 5.0 µg/mL (≈ 12.2 µM); MIC (Proteus mirabilis; [23]): 5 µg/mL (≈ 12.2 µM); MIC (Proteus mirabilis; Proteus mirabilis strain T251): 5.0 µg/mL (≈ 12.2 µM); MIC (Enterobacter aerogenes; [24]): 5 µg/mL (≈ 12.2 µM); MIC (Enterobacter aerogenes; [25]): 5 µg/mL (≈ 12.2 µM)
COC1(NC(=O)C(C(=O)O)c2ccsc2)C(=O)N2C(C(=O)O)C(C)(C)SC21 [6-methoxy ticarcillin, 6-β-(D,L-2-Carboxy-2-thien-3'-ylacetamido)-6-α-methoxypenicillanic acid] | > 500 | > 500 | > 500 | 2.5 (≈ 6.03 µM) | 5 (≈ 12.1 µM) | 2.5 (≈ 6.03 µM) | 2.5 (≈ 6.03 µM) | 2.5 (≈ 6.03 µM) | 2.5 (≈ 6.03 µM) | 5 (≈ 12.1 µM) | 5 (≈ 12.1 µM) | 5 (≈ 12.1 µM) | 5 (≈ 12.1 µM) | 2.5 (≈ 6.03 µM) | 5 (≈ 12.1 µM) | 5 (≈ 12.1 µM) | 5 (≈ 12.1 µM) | 5 (≈ 12.1 µM) | 2.5 (≈ 6.03 µM) | 5 (≈ 12.1 µM) | MIC (Klebsiella aerogenes; [18]): 5 µg/mL (≈ 12.1 µM); MIC (Klebsiella aerogenes; [19]): 5 µg/mL (≈ 12.1 µM); MIC (P. morganii; [20]): 2.5 µg/mL (≈ 6.03 µM); MIC (P. morganii; P. morganii strain DU718): 2.5 µg/mL (≈ 6.03 µM); MIC (Serratia marcescens; Serratia marcescens strain US1): 2.5 µg/mL (≈ 6.03 µM); MIC (Serratia marcescens; [21]): 5 µg/mL (≈ 12.1 µM); MIC (Serratia marcescens; [22]): 2.5 µg/mL (≈ 6.03 µM); MIC (P. vulgaris; P. vulgaris strain C): < 0.5 µg/mL; MIC (P. vulgaris; P. vulgaris strain I): 2.5 µg/mL (≈ 6.03 µM); MIC (P. vulgaris; P. vulgaris strain K): 5 µg/mL (≈ 12.1 µM); MIC (E. cloacae; E. cloacae strain T629): 2.5 µg/mL (≈ 6.03 µM); MIC (E. cloacae; E. cloacae strain T763): 1.2 µg/mL (≈ 2.9 µM); activity relative to the corresponding phenyl compound (6-methoxy carbenicillin) [1]: consistently two-fold more active; MIC (Proteus mirabilis; Proteus mirabilis strain BS66): 2.5 µg/mL (≈ 6.03 µM); MIC (Proteus mirabilis; Proteus mirabilis strain CT13): 2.5 µg/mL (≈ 6.03 µM); MIC (Proteus mirabilis; [23]): 2.5 µg/mL (≈ 6.03 µM); MIC (Proteus mirabilis; Proteus mirabilis strain T251): 2.5 µg/mL (≈ 6.03 µM); MIC (Enterobacter aerogenes; [24]): 1.2 µg/mL (≈ 2.9 µM); MIC (Enterobacter aerogenes; [25]): 2.5 µg/mL (≈ 6.03 µM)
